Reference: patent US20100204131A1, “USE OF A PEPTIDE AS A THERAPEUTIC AGENT” (priority 2007, published 2010)
No end group written: not given here.

Tests used:
[1] = tested on: HIV-1IIIB; experiment: HIV-1 antiviral assay in CEM-SS cells; settings: CEM-SS cells infected with HIV-1IIIB
[2] = tested on: HCMV strain AD169; experiment: HCMV plaque formation assay in MRC-5 cells; settings: for inhibition of HCMV plaque formation as compared to the virus control: 10 micrograms per ml, MRC-5 cells, 7-10 days
[3] = tested on: hepatitis B virus (HBV) ayw strain; experiment: HBV experimental assay system (HepG2-2.2.15, TaqMan PCR); assay type: cell-based; settings: 10 micrograms per ml; HepG2-2.2.15 cells; six days; HBV DNA by TaqMan PCR
From the text: HepG2-2.2.15 is a stable cell line containing the hepatitis B virus (HBV) ayw strain genome (ATCC Cat. No. CRL-11997). Antiviral compounds blocking any late step of viral replication such as transcription, translation, pregenome encapsidation, reverse transcription, particle assembly and release can be identified and characterized using this cell line. In this assay, an active compound will reduce the production of secreted HBV from cells, measured by utilizing real time quantitative PCR (TaqMan) assay to directly and accurately measure HBV DNA copies.
HepG2-2.2.15 cells were plated in 96-well microtiter plates. After 16-24 hours the confluent monolayer of HepG2-2.2.15 cells was washed and the medium was replaced with complete medium containing test peptides—10 micrograms per ml—in duplicate. […] Six days following the initial administration of the peptides, the cell culture supernatants was collected, treated with pronase and DNAse and then used in a real-time quantitative TaqMan PCR assay. The PCR-amplified HBV DNA was detected in real-time by monitoring increases in fluorescence signals that result from the exonucleolytic degradation of a quenched fluorescence probe molecule that hybridizes to the amplified HBV DNA. […] Antiviral activity was calculated from the reduction in HBV DNA levels (% virus control). […]

[4] = tested on: Primary Human endothelial cells (HUVEC); experiment: Endothelial cell migration assay; settings: 10 micrograms per ml, 22 hours, transwell
Procedure: Primary Human endothelial cells (HUVEC) were seeded in insert chambers with 3 micrometer pore size of multi-transwell plate for 6 hours at 37° C. in Endothelial Cell Basal Medium (EBM) supplemented with 0.1% bovine serum albumin. Thereafter, designated concentration of testing peptides -10 micrograms per ml—was added in duplicate wells. The endothelia were allowed to migrate for 22 hours at 37° C., then, migrated cells were fixed and stained with Hoechst 33342 dye. Images of 3 fields per insert were taken and the number of migrated cells per field were quantified using the ImageProPlus software. Data were analyzed for the average number of the migrated cells and standard deviation of six data points for each treatment condition. […] Statistic p values were computed using the Student's t-test.

[5] = tested on: HUVEC; experiment: Endothelial tube formation assay; settings: 10 micrograms per ml, 20 hours, average tubule length
Procedure: The endothelial tube formation assay is based on the ability of endothelial cells to form three-dimensional capillary-like tubular structures when cultured on a gel of basement membrane extract. […] Pre-labeled HUVEC with Calcein AM were seeded in a 96-well culture plate coated with extracellular metrix (Chemicon international Cat. ECM625) and treated with test peptides—10 micrograms per ml—in full growth medium. Positive control was vehicle only. The endothelial cells were allowed to form tubes foe 20 hours and were then examined under an inverted fluorescent microscope. Duplicate wells for each treatment were photographed and quantitatevily analyzed for an average tubule length using image analysis software ImageProPlus. Raw data were expressed as average tubule lengths in pixels ±standard deviation. Statistic p values were computed using the Student's t-test.

[6] = tested on: IFNγ spleen cells; experiment: Th1/Th2 cytokine profiling assay: IFNγ; settings: 10 micrograms per ml; spleen cells of Ovalbumin-immunized Balb/c mice restimulated with Ovalbumin 10 micrograms/ml; 72 hours; supernatant
From the text: (§1) The Balb/c mice (originated in 1923, it is a popular strain and is used in many different research disciplines. Also classified as an inbred from the production of 20 or more successive brother-sister matings, the Balb/c mouse is albino and small in size) were immunized on Days 1, 15, and 29 with Ovalbumin (Ovalbumin is the main protein found in egg white, commonly used to stimulate an immunological reaction in test animals) in PBS (5 micrograms/injection). On day 50, spleens of the mice were harvested (3 weeks after last boost with Ovalbumin). […] Thereafter, additional Ovalbumin was added to the cells at 10 micrograms/ml for in vitro restimulation of the cells. 72 hours later, cell supernatants were harvested and assayed using the Becton Dickinson Mouse Th1/Th2 Cytokine CBA Kit. This kit can be used to measure Interleukin-2 (IL-2), Interleukin-4 (IL-4), Interleukin-5 (IL-5), Interferon-γ (IFN-γ), and Tumor Necrosis Factor-α (TNF-α) protein levels in a single sample.

[7] = tested on: IL-2 spleen cells; experiment: Th1/Th2 cytokine profiling assay: IL-2; settings: 10 micrograms per ml; spleen cells of Ovalbumin-immunized Balb/c mice restimulated with Ovalbumin 10 micrograms/ml; 72 hours; supernatant
From the text: (§2) The Balb/c mice (originated in 1923, it is a popular strain and is used in many different research disciplines. Also classified as an inbred from the production of 20 or more successive brother-sister matings, the Balb/c mouse is albino and small in size) were immunized on Days 1, 15, and 29 with Ovalbumin (Ovalbumin is the main protein found in egg white, commonly used to stimulate an immunological reaction in test animals) in PBS (5 micrograms/injection). On day 50, spleens of the mice were harvested (3 weeks after last boost with Ovalbumin). […] Thereafter, additional Ovalbumin was added to the cells at 10 micrograms/ml for in vitro restimulation of the cells. 72 hours later, cell supernatants were harvested and assayed using the Becton Dickinson Mouse Th1/Th2 Cytokine CBA Kit.

[8] = tested on: IL-4 spleen cells; experiment: Th1/Th2 cytokine profiling assay: IL-4; settings: 10 micrograms per ml; spleen cells of Ovalbumin-immunized Balb/c mice restimulated with Ovalbumin 10 micrograms/ml; 72 hours; supernatant
From the text: as §2

[9] = tested on: IL-5 spleen cells; experiment: Th1/Th2 cytokine profiling assay: IL-5; settings: 10 micrograms per ml; spleen cells of Ovalbumin-immunized Balb/c mice restimulated with Ovalbumin 10 micrograms/ml; 72 hours; supernatant
From the text: as §2

[10] = tested on: TNF-a spleen cells; experiment: Th1/Th2 cytokine profiling assay: TNF-a; settings: 10 micrograms per ml; spleen cells of Ovalbumin-immunized Balb/c mice restimulated with Ovalbumin 10 micrograms/ml; 72 hours; supernatant
From the text: as §1

| Compound | antiviral activity of positive control compounds [1] | antiviral activity of positive control compound ([2]; positive control, HCMV in MRC-5 cells) | inhibition of HBV replication on tested liver cells [3] | inhibition of the migration of human endothelial cells [4] | inhibition of the tube formation of endothelial cells [5] | IFNγ spleen cells; TH1 response (% of control) [6] | IL-2 spleen cells (% of control) [7] | IL-4 spleen cells; TH2 response (% of control) [8] | IL-5 spleen cells; TH2 response (% of control) [9] | TNF-a spleen cells; TH1 response (% of control) [10] | inhibition of HCMV plaque formation as compared to the virus control [2] |
| --- | --- | --- | --- | --- | --- | --- | --- | --- | --- | --- | --- |
| Cc1cn([C@H]2C[C@H](N=[N+]=[N-])[C@@H](CO)O2)c(=O)[nH]c1=O [AZT] | expected levels of antiviral activity | – | – | – | – | – | – | – | – | – | – |
| Nc1nc(O)c2ncn(COC(CO)CO)c2n1 [Ganciclovir, reference compound] | – | expected levels of antiviral activity | – | – | – | – | – | – | – | – | – |
| CC(C)(C)NC(=O)[C@@H]1CN(Cc2cccnc2)CCN1C[C@@H](O)C[C@@H](Cc1ccccc1)C(=O)N[C@H]1c2ccccc2C[C@H]1O [indinavir] | expected levels of antiviral activity | – | – | – | – | – | – | – | – | – | – |
| Ala-Ser-Gln-Phe-Glu-Thr-Ser-OH (ASQFETS-OH) [peptide 2] | – | – | no effect | 28% | 27% | 94.7 % of control | 72.5 % of control | 0.0 % of control | 57.6 % of control | 110.7 % of control | did not inhibit |
| Ser-Tyr-Ser-Met-Glu-His-Phe-Arg-Trp-Gly-Lys-Pro-Val-Gly-Lys-Lys-Arg-Arg-Pro-Val-Lys-Val-Tyr-Pro-OH (SYSMEHFRWGKPVGKKRRPVKVYP-OH) [peptide 1] | – | – | no effect | did not inhibit | 25% | 103.7 % of control | 149.2 % of control | 132.1 % of control | 82.6 % of control | 97.0 % of control | did not inhibit |
